# According to ChEMBL document CHEMBL1909046, “DrugMatrix in vitro pharmacology data”:
# Tests used:
# [1] = DRUGMATRIX: GABAA, Flunitrazepam, Central radioligand binding (ligand: [3H] Flunitrazepam); format: cell membranes, Rattus norvegicus, Wistar, Brain, Membrane; details: Not Active = under 50% inhibition at 10 µM
# Cytochrome P450 2A6 = molecular target: T1, Cytochrome P450 2A6 (Homo sapiens, UniProt P11509); details: bti-tn-5b1-4; note: in other assays of this panel Not Active means under 50% inhibition at 10 µM
# T1 sequence (P11509 whole entry): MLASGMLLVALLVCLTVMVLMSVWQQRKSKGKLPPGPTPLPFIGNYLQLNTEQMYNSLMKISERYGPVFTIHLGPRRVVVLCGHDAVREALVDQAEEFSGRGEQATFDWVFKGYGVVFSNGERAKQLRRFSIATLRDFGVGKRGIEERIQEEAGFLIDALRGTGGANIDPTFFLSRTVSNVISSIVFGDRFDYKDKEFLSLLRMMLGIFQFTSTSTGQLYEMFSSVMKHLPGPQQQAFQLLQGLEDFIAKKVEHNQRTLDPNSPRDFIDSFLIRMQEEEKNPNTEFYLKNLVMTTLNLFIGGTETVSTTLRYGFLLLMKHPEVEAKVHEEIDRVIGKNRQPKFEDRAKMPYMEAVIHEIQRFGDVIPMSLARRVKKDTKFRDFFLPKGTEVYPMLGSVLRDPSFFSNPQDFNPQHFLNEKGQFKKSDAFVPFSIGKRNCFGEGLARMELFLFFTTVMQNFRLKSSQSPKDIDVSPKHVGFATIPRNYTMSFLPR
# Cytochrome P450 2C9 = Cytochrome P450 2C9 (Homo sapiens, UniProt P11712); details: bti-tn-5b1-4; note: in other assays of this panel Not Active means under 50% inhibition at 10 µM
# [2] = DRUGMATRIX: beta-Lactamase enzyme inhibition (substrate: Nitrocefin); design: species or system Bacillus cereus; details: Not Active = under 50% inhibition at 10 µM
# [3] = molecular target: cGMP-specific 3',5'-cyclic phosphodiesterase (Homo sapiens, UniProt O76074); assay: DRUGMATRIX: Phosphodiesterase PDE5 enzyme inhibition (substrate: [3H]cGMP + cGMP); format: tissue-based, Platelet; details: platelet; Not Active = under 50% inhibition at 10 µM
# [4] = molecular target: T2, Neuropeptide Y receptor type 1 (Homo sapiens, UniProt P25929); format: cell membranes, Membrane; details: sk-n-mc; note: in other assays of this panel Not Active means under 50% inhibition at 10 µM
# T2 sequence (P25929 whole entry): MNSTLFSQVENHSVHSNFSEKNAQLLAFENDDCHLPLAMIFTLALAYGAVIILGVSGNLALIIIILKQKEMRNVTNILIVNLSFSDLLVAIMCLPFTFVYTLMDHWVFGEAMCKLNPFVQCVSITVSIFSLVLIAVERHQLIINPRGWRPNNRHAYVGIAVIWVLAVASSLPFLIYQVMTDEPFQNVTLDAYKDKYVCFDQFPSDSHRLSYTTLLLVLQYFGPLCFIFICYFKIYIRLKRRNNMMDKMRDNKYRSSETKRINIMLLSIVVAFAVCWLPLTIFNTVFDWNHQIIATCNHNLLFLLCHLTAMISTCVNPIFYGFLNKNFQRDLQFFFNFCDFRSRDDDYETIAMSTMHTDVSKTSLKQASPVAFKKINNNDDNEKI
# Histamine H2 receptor = Histamine H2 receptor (Homo sapiens, UniProt P25021); format: cell membranes, CHO-K1, Membrane; note: in other assays of this panel Not Active means under 50% inhibition at 10 µM
# Sequence of Histamine H2 receptor (P25021 whole entry): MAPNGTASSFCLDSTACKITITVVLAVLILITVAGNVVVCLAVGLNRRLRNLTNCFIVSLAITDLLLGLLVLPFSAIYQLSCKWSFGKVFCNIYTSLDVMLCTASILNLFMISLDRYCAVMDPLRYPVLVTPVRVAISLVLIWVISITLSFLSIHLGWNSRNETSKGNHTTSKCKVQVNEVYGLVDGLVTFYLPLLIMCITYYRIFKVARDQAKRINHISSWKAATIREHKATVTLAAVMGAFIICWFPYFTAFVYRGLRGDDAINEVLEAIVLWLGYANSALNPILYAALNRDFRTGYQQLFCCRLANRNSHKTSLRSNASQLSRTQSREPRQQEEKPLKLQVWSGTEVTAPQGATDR
# Sequence of Cytochrome P450 2C9 (P11712 whole entry): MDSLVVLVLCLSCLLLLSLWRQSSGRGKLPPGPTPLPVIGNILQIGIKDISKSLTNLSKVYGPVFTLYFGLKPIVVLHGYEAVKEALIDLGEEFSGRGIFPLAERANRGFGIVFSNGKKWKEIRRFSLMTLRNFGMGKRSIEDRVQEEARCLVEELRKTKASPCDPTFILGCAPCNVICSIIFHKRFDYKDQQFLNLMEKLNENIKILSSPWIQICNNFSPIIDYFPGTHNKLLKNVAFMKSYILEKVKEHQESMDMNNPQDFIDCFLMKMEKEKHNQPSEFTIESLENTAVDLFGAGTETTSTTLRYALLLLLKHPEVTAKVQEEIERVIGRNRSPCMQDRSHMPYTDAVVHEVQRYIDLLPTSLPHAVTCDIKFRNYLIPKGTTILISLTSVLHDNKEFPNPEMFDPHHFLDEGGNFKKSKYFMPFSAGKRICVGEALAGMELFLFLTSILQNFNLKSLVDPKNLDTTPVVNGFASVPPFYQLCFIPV
SMILES,IC50 ([1]; read-out: IC50),Ki ([1]; read-out: Ki),IC50 (Cytochrome P450 2A6),Ki (Cytochrome P450 2A6),IC50 (Cytochrome P450 2C9),Ki (Cytochrome P450 2C9),IC50 [2],Ki [2],IC50 [3],IC50 [4],IC50 (Histamine H2 receptor; cho-k1),IC50 [1],Ki [1],Ki [4],IC50 (Histamine H2 receptor; read-out: IC50),Ki (Histamine H2 receptor; read-out: Ki)
Cc1nnc2n1-c1ccc(Cl)cc1C(c1ccccc1)=NC2 [ALPRAZOLAM],16.6 nM,13.5 nM,Not Active,Not Active,Not Active,Not Active,Not Active,Not Active,Not Active,Not Active,Not Active,–,–,–,–,–
CCC1(CCC(C)C)C(=O)NC(=O)NC1=O [AMOBARBITAL],–,–,Not Active,Not Active,Not Active,Not Active,Not Active,Not Active,Not Active,–,Not Active,Not Active,Not Active,Not Active,–,–
COc1ccc(C2C(=O)c3ccccc3C2=O)cc1 [ANISINDIONE],–,–,Not Active,Not Active,Not Active,Not Active,Not Active,Not Active,Not Active,Not Active,Not Active,Not Active,Not Active,–,–,–
O=C1O[C@H]([C@@H](O)CO)C(O)=C1O [ASCORBIC ACID],–,–,Not Active,Not Active,Not Active,Not Active,Not Active,Not Active,Not Active,Not Active,Not Active,Not Active,Not Active,–,–,–
CC(C(=O)O)c1ccc2oc(-c3ccc(Cl)cc3)nc2c1 (configuration not stated) [BENOXAPROFEN],–,–,Not Active,Not Active,Not Active,Not Active,Not Active,Not Active,Not Active,Not Active,Not Active,Not Active,Not Active,–,–,–
COc1ccc2cc3[n+](cc2c1OC)CCc1cc2c(cc1-3)OCO2.[Cl-] [BERBERINE CHLORIDE],–,–,Not Active,Not Active,Not Active,Not Active,Not Active,Not Active,Not Active,Not Active,Not Active,Not Active,Not Active,–,–,–
O=C(O)CCNC(=O)c1ccccc1 [BETAMIPRON],–,–,Not Active,Not Active,Not Active,Not Active,Not Active,Not Active,Not Active,Not Active,Not Active,Not Active,Not Active,–,–,–
Cc1cc2c(OCC(CNC(C)(C)C)OC(=O)c3ccccc3)cccc2[nH]1 (configuration not stated) [BOPINDOLOL],–,–,Not Active,Not Active,Not Active,Not Active,Not Active,Not Active,Not Active,Not Active,Not Active,Not Active,Not Active,–,–,–
Brc1c(NC2=NCCN2)ccc2nccnc12 [BRIMONIDINE],–,–,Not Active,Not Active,Not Active,Not Active,Not Active,Not Active,Not Active,Not Active,Not Active,Not Active,Not Active,–,–,–
CN(C)[C@@H]1C(O)=C(C(N)=O)C(=O)[C@@]2(O)C(O)=C3C(=O)c4c(O)ccc(Cl)c4[C@@](C)(O)[C@H]3C[C@@H]12 [CHLORTETRACYCLINE],–,–,Not Active,Not Active,Not Active,Not Active,Not Active,Not Active,Not Active,Not Active,Not Active,Not Active,Not Active,–,–,–
COc1cc(N)c(Cl)cc1C(=O)NC1CCN(CCCOc2ccc(F)cc2)CC1OC (configuration not stated) [CISAPRIDE],–,–,Not Active,Not Active,Not Active,Not Active,Not Active,Not Active,Not Active,Not Active,Not Active,Not Active,Not Active,–,–,–
CCC(=O)O[C@]1(C(=O)CCl)[C@@H](C)C[C@H]2[C@@H]3CCC4=CC(=O)C=C[C@]4(C)[C@@]3(F)[C@@H](O)C[C@@]21C [CLOBETASOL PROPIONATE],–,–,Not Active,Not Active,Not Active,Not Active,Not Active,Not Active,Not Active,Not Active,Not Active,Not Active,Not Active,–,–,–
O=C1CN=C(c2ccccc2Cl)c2cc([N+](=O)[O-])ccc2N1 [CLONAZEPAM],4.93 nM,4.02 nM,Not Active,Not Active,Not Active,Not Active,Not Active,Not Active,Not Active,Not Active,Not Active,–,–,–,–,–
Nc1ccn([C@@H]2O[C@H](CO)[C@@H](O)[C@@H]2O)c(=O)n1 [CYTARABINE],–,–,Not Active,Not Active,Not Active,Not Active,Not Active,Not Active,Not Active,Not Active,Not Active,Not Active,Not Active,–,–,–
C[C@@H]1C[C@H]2[C@@H]3CCC4=CC(=O)C=C[C@]4(C)[C@@]3(F)[C@@H](O)C[C@]2(C)[C@H]1C(=O)CO [DESOXIMETASONE],–,–,Not Active,Not Active,Not Active,Not Active,Not Active,Not Active,Not Active,Not Active,Not Active,Not Active,Not Active,–,–,–
CN(C)CC[C@@H](c1ccc(Cl)cc1)c1ccccn1 [DEXCHLORPHENIRAMINE],–,–,Not Active,Not Active,Not Active,Not Active,Not Active,Not Active,Not Active,Not Active,–,Not Active,Not Active,–,8370 nM,8230 nM
C[C@@H]1CC[C@@]2(OC1)O[C@H]1[C@@H](O)[C@H]3[C@@H]4CC[C@H]5C[C@@H](O[C@@H]6O[C@H](CO)[C@H](O[C@@H]7O[C@H](CO)C(O)[C@H](O[C@@H]8OC[C@@H](O)[C@H](O)[C@H]8O)[C@H]7O[C@@H]7O[C@H](CO)[C@H](O)[C@H](O[C@@H]8O[C@H](CO)[C@@H](O)[C@H](O)[C@H]8O)[C@H]7O)[C@H](O)[C@H]6O)[C@H](O)C[C@]5(C)[C@H]4CC[C@]3(C)[C@H]1[C@@H]2C (some centres not stated) [DIGITONIN],–,–,Not Active,Not Active,Not Active,Not Active,Not Active,Not Active,Not Active,Not Active,Not Active,Not Active,Not Active,–,–,–
OC(CCCN1CCCCC1)(c1ccccc1)c1ccccc1 [DIPHENIDOL],–,–,Not Active,Not Active,Not Active,Not Active,Not Active,Not Active,Not Active,Not Active,Not Active,Not Active,Not Active,–,–,–
C[C@H]1O[C@@H](n2cc(F)c(=O)[nH]c2=O)[C@H](O)[C@@H]1O [DOXIFLURIDINE],–,–,Not Active,Not Active,Not Active,Not Active,Not Active,Not Active,Not Active,Not Active,Not Active,Not Active,Not Active,–,–,–
Cn1c(=O)c2c(ncn2CC(O)CO)n(C)c1=O (configuration not stated) [DYPHYLLINE],–,–,Not Active,Not Active,Not Active,Not Active,Not Active,Not Active,Not Active,Not Active,Not Active,Not Active,Not Active,–,–,–
CC[C@H]1CN2CCc3cc(OC)c(OC)cc3[C@@H]2C[C@@H]1C[C@H]1NCCc2cc(OC)c(OC)cc21 [EMETINE],–,–,Not Active,Not Active,Not Active,Not Active,Not Active,Not Active,Not Active,Not Active,Not Active,Not Active,Not Active,–,–,–
